Where two headings read alike, the source gives them in different places.
Experiments:
[1] = rats and mice, up to 10 g/kg; reported in WO 96/34846; cited from earlier work
[2] = tested on: chronic EAE in the Biozzi mouse model; test: NA:NA and NA:GLA in ethyl oleate in chronic relapsing EAE (Example 7); type: in vivo; conditions: for AG: Percentage of mice in the group / CFT: Percentage of mice in the group / CHLP: Percentage of mice in the group / HLH: Percentage of mice in the group / PFT: Percentage of mice in the group / PHLP: Percentage of mice in the group: ethyl oleate vehicle
Method: (§1) Male Biozzi mice weighing 30-35 g were injected in each flank with 0.15 mL of an emulsion containing lyophilised mouse spinal cord, phosphate buffered saline and incomplete Freund's adjuvant supplemented with Mycobacterium butyricum and Mycobacterium tuberculosis H37Ra.
(§2) 1: Partial Flaccid Tail (PFT), 2: Complete Flaccid Tail (CFT), 3: Impaired Righting Reflex (IRR), 4: Ataxic Gait (AG), 5: Hind Limb Hypotonia (HLH), 6: Partial Hind Limb Paralysis (PHLP), 7: Complete Hind Limb Paralysis (CHLP), 8: Moribund (M), 9: Dead (D).

[3] = Nervonic acid composition of total polar lipid from rat brain (Example 9); type: in vivo; conditions: after Example 6 treatments; NA:GLA at both low and high doses
Method: (§3) Upon termination of certain biological evaluations, rat or mice brains were extracted and the fatty acid composition of total polar lipids from rat/mouse brain was determined.
(§4) Biological material was sent for analysis to Dr J. Hendersen at the University of Stirling, Institute of Aquaculture, Scotland. Analyses were carried out on two batches of experiments (detailed respectively in Example 6 and Example 7).

[4] = tested on: neurological EAE in the Lewis rat; conditions: for Number diseased/total: 5 days prior to inoculation and 25 days PI
Method: Male Lewis rats, weighing 230-280 g on the day of inoculation, were injected in each rear footpad with 0.1 ml of an emulsion containing equal parts of guinea pig spinal cord; phosphate buffered saline (PBS) and incomplete Freund's adjuvant supplemented with 10 mg/ml Mycobacterium tuberculosis H37Ra.
Animals were weighed daily and assessed for neurological disease from day 7 post-inoculation (PI). Rats displaying symptoms of EAE were scored as follows: 1: flaccid tail (FT), 2: hind limb hypotonia (HLH), 3: partial hind limb paralysis (PHLP), 4: complete hind limb paralysis (CHLP), 5: moribund or dead.
NA:GLA (neat oil) was orally administered 5 days prior to inoculation and continued for 25 days PI, at a dose of 750 mg/kg body weight/day and 1000 mg/kg body weight/day. NA:DHA (neat oil) was given by an identical dosing regime at a dose of 500 mg/kg body weight/day. Control-sensitised animals received PBS vehicle or were undosed. Undosed, vehicle and low dose NA:GLA treatments contained 7 animals. Four rats received high dose NA:GLA and 3 rats were dosed with NA:DHA.

[5] = Nervonic acid composition of total polar lipid from mouse brain (Example 9); type: in vivo; conditions: CREAE-inoculated mice
Method: as §3, §4

[6] = tested on: CREAE in the Biozzi mouse model; test: NA:NA and NA:GLA in Miglyol 810 in CREAE (Example 8); type: in vivo
Method: as §1, §2
Therefore, Miglyol appeared well-suited for use as a vehicle in subsequent studies to determine the efficacy of compounds in CREAE. Therefore, using Miglyol 810 as the new vehicle, prophylactic effects of NA:NA and NA:GLA were re-assessed on CREAE in the Biozzi mouse model (90% dilution, 1000 mg/kg/day, up to 43 days PI).

[7] = Miscibility / physical state of oral compositions in vehicle; type: physicochemical; conditions: room temperature (about 20° C.)
Text: Formulations of the present invention suitable for oral administration may be in the form of discrete units such as capsules, cachets, tablets or lozenges, each containing a predetermined amount of the active ingredient; in the form of a powder or granules; in the form of a solution or a suspension in an aqueous liquid or non-aqueous liquid; or in the form of an oil-in-water emulsion or a water-in-oil emulsion. The active ingredient may also be in the form of a bolus, electuary or paste. For such formulations, a range of dilutions of the active ingredient in the vehicle is suitable, such as from 1% to 99%, preferably 5% to 50% and more preferably 10% to 25% dilution. Depending upon the level of dilution, the formulation will be either a liquid at room temperature (in the region of about 20° C.) or a low-melting solid.

[8] = Biozzi mouse, 10% w/w in ethyl oleate, 1000 mg/kg body weight/day
[9] = acute phase, Biozzi mouse, 10% w/w in ethyl oleate, 1000 mg/kg body weight/day
[10] = relapse phase, Biozzi mouse, 10% w/w in ethyl oleate, 1000 mg/kg body weight/day
[11] = acute phase, Miglyol 810 vehicle, 1000 mg/kg/day
[12] = acute phase, Miglyol 810 vehicle, n=12, NA:GLA n=11
[13] = relapse phase, Miglyol 810 vehicle, 1000 mg/kg/day
[14] = relapse phase, Miglyol 810 vehicle, NA:GLA n=9, NA:NA n=11

CCCCC/C=C\C/C=C\C/C=C\CCCCC(=O)OCCCOC(=O)CCCC/C=C\C/C=C\C/C=C\CCCCC [GLA:GLA, 1,3-Di(z,z,z-6,9,12-Octadecatrienoyloxy)propane]
evidence of diarrhea (absence of toxicity) [1]: without evidence of diarrhea

CCCCC/C=C\C/C=C\C/C=C\CCCCC(=O)OCCCOC(=O)CCCCCCCCCCCCC/C=C\CCCCCCCC [NA:GLA, 1-(z-15-tetracosenoyloxy)-3-(z,z,z-6,9,12-octadecatrienoyloxy)propane]
Acute and relapse symptoms (mean neurological scores) [2, 8]: markedly reduced
onset of relapse [2, 8]: delayed, but not significantly
Mean day of symptom loss [2, 9]: 30.0 ± 1.4 days
Mean day of symptom onset [2, 9]: 21.7 ± 4.2 days
Mean duration of symptoms [2, 9]: 5.7 ± 1.5 days
Number of dead mice [2, 9]: 0/10
No. of diseased mice ([2]; acute phase, Biozzi mouse, […], oral 1000 mg/kg body weight/day, 5 days prior to inoculation and 43 days PI, n=10): 3/10
AG: Percentage of mice in the group ([2]; acute phase, n=10): 20%
CFT: Percentage of mice in the group ([2]; acute phase, n=10): 20%
CHLP: Percentage of mice in the group ([2]; acute phase, n=10): 20%
HLH: Percentage of mice in the group ([2]; acute phase, n=10): 30%
PFT: Percentage of mice in the group ([2]; acute phase, n=10): 20%
PHLP: Percentage of mice in the group ([2]; acute phase, n=10): 20%
Mean day of symptom onset [2, 10]: 42.0 ± 1.0 days
No. of diseased mice [2, 10]: 3/10
Number of dead mice [2, 10]: 0/10
AG: Percentage of mice in the group ([2]; relapse phase, n=10): 10%
CFT: Percentage of mice in the group ([2]; relapse phase, n=10): 10%
CHLP: Percentage of mice in the group ([2]; relapse phase, n=10): 0%
HLH: Percentage of mice in the group ([2]; relapse phase, n=10): 30%
PFT: Percentage of mice in the group ([2]; relapse phase, n=10): 10%
PHLP: Percentage of mice in the group ([2]; relapse phase, n=10): 0%
NA levels in rat brain lipids compared to normal, undosed and vehicle treated animals [3]: marked increase of NA levels
CHLP: Number of animals showing symptoms/total ([4]; 750 mg/kg/day): 3/7
FT: Number of animals showing symptoms/total ([4]; 750 mg/kg/day): 7/7
HLH: Number of animals showing symptoms/total ([4]; 750 mg/kg/day): 7/7
PHLP: Number of animals showing symptoms/total ([4]; 750 mg/kg/day): 4/7
CHLP: Number of animals showing symptoms/total ([4]; 1000 mg/kg/day): 1/4
FT: Number of animals showing symptoms/total ([4]; 1000 mg/kg/day): 4/4
HLH: Number of animals showing symptoms/total ([4]; 1000 mg/kg/day): 4/4
PHLP: Number of animals showing symptoms/total ([4]; 1000 mg/kg/day): 2/4
effect on onset, incidence and severity of disease ([4]; 750 and 1000 mg/Kg body weight/day, compared to control groups): delayed the onset and clearly reduced the incidence and severity of disease
animals that experienced CHLP ([4]; high dose): 25%
animals that experienced PHLP ([4]; high dose): 50%
mean cumulative clinical scores ([4]; low and high dose (750 and 1000 mg/kg/day)): consistently lower than control values
animals that experienced CHLP ([4]; low dose): 43%
animals that experienced PHLP ([4]; low dose): 57%
Mean day of final symptom loss (±SD) ([4]; neat oil oral 750 mg/kg/day): 19.0 ± 0.8 days
Mean day of symptom onset (±SD) ([4]; neat oil oral 750 mg/kg/day): 11.3 ± 0.8 days
Number of dead/total ([4]; neat oil oral 750 mg/kg/day): 0/7
Number diseased/total ([4]; neat oil oral 750 mg/kg/day): 7/7
Mean day of final symptom loss (±SD) ([4]; neat oil oral 1000 mg/kg/day): 18.8 ± 1.3 days
Mean day of symptom onset (±SD) ([4]; neat oil oral 1000 mg/kg/day): 11.3 ± 0.5 days
Number of dead/total ([4]; neat oil oral 1000 mg/kg/day): 0/4
Number diseased/total ([4]; neat oil oral 1000 mg/kg/day): 4/4
NA levels in mouse brain lipids compared to undosed and vehicle [5]: enhancement of the NA levels in brain lipids
effect on the neurological course of CREAE ([6]; Biozzi mouse, Miglyol 810 vehicle, 1000 mg/kg/day): clearly reduced the intensity of neurological deficits during both acute and relapsing phases
No. of diseased mice ([6]; acute phase, Biozzi mouse, Miglyol 810 vehicle (90% dilution), 1000 mg/kg/day, up to 43 days PI): 10/11
Mean day of symptom loss [6, 11]: 25.9 ± 2.0 days
Mean day of symptom onset [6, 11]: 17.9 ± 2.6 days
Mean duration of symptoms [6, 11]: 6.9 ± 3.0 days
Number of dead mice [6, 11]: 1/11
AG: Percentage of mice in the group [6, 12]: 73%
CFT: Percentage of mice in the group [6, 12]: 82%
CHLP: Percentage of mice in the group [6, 12]: 36%
D (dead): Percentage of mice in the group [6, 12]: 9%
HLH: Percentage of mice in the group [6, 12]: 73%
IRR: Percentage of mice in the group [6, 12]: 82%
M (moribund): Percentage of mice in the group [6, 12]: 0%
PFT: Percentage of mice in the group [6, 12]: 91%
PHLP: Percentage of mice in the group [6, 12]: 46%
D (dead): Percentage of mice in the group ([6]; mouse, in vivo): 22%
M (moribund): Percentage of mice in the group ([6]; mouse, in vivo): 11%
Mean day of symptom loss [6, 13]: 39.8 ± 5.0 days
Mean day of symptom onset [6, 13]: 33.1 ± 4.9 days
Mean duration of symptoms [6, 13]: 7.0 ± 4.2 days
No. of diseased mice [6, 13]: 8/9
Number of dead mice [6, 13]: 3/9
AG: Percentage of mice in the group [6, 14]: 56%
CFT: Percentage of mice in the group [6, 14]: 67%
CHLP: Percentage of mice in the group [6, 14]: 44%
HLH: Percentage of mice in the group [6, 14]: 56%
IRR: Percentage of mice in the group [6, 14]: 67%
PFT: Percentage of mice in the group [6, 14]: 89%
PHLP: Percentage of mice in the group [6, 14]: 56%
miscibility of compositions with vehicle [7]: miscible in all proportions at room temperature
